Key:
[1] = system: HEK-293 cells; test: Apoptosis assay: X-Gal staining of β-galactosidase co-transfected cells, apoptotic morphology; assay type: cell-based, human; conditions: HEK-293, HVJ-liposome method
[2] = system: HEK-293 cells; test: as above; assay type: cell-based, human; conditions: for effect of oligonucleotide on prostacyclin-mediated apoptosis: HEK-293, HVJ-liposome method; for induction/enhancement of apoptosis by treatment with the agent: various concentrations (1, 10, 100 μM) in serum-free medium, cells expressing β-galactosidase and PGISwt or PGISC441A
Experimental: Cells were transfected with 1.0 μg of β-galactosidase expression vector using LipofectAMINE. After a fixed time, the cells were stained with X-Gal to evaluate the cells for apoptotic morphology. Apoptosis was monitored with ApoAlert caspase assay kit using Ac-DEVD-AFC substrate (Clontech). The activity was determined by using lysate pretreated with. Ac-DEVD-CHO as a control according to the supplier's instructions. The caspase activity is defined as a ratio between the caspase activity of a sample and that of lysate prepared from HEK-293 cells mock-transfected with a control plasmid.
To strictly ascertain the relationship between the expression of PGIS and apoptosis, HEK-293 cells were co-transfected with two types of expression constructs for human PGISwt and β-galactosidase. Because normal HEK-293 cells have flat morphology, it is easy to assess the cells for apoptotic changes characterized by membrane vesicle formation and cell body shrinkage. After incubation for a predetermined time following transfection, cells were stained with X-gal for β-galactosidase activity to identify cells containing the transgenes and then assessed for the apoptotic morphology. […] In HEK-293 cells, apoptosis was induced only by the expression of PGISwt without the presence of co-expression of COX-2 (FIGS. 4a and 5). The co-expression of COX-2 with PGISwt increased the number of apoptotic cells (16%). […] The level of 6-keto-PGF1α released into culture medium was correlated with the frequency of apoptosis (FIG. 6). […] Neither co-expression of PGISC441A and COX-2 nor further addition of arachidonic acid gave influence on the production 6-keto-PGF1α and morphological changes (FIGS. 5 and 6). These findings clearly indicate that prostacyclin produced by active PGIS participates in the process of apoptosis.

[3] = system: PPAR; test: PPREx3-luciferase assay in HEK-293 cells; assay type: cell-based, human
Description: The sense oligonucleotide […] CTC (SEQ ID NO: 7) and antisense oligonucleotide […] A (which contains three copies of PPRE; SEQ ID NO: 8) were synthesized and annealed together; the resulting double-stranded DNA was subcloned into PGL3-promoter vector (Promega) at the MluI-XhoI site. PPREx3-luciferase reporter vector and β-galactosidase expression vector were co-transfected into HEK-293 cells using LipofectAMINE. The activity of β-galactosidase was normalized with absorbance at 405 nm.

[4] = system: PPAR-δ; test: Immunoblot of PPAR-δ after oligonucleotide transfection (HVJ-liposome method); assay type: cell-based, human; conditions: after 48 hours
Description: A lysate prepared from cells transfected with the PPAR-δ antisense oligonucleotide (AS) was immuno-blotted using an anti-PPAR-δ monoclonal antibody; a sense oligonucleotide (S) was used as a control.
dS, which corresponds to human PPAR-δ cDNA sense sequence: 5′-CTCGGTGACTTATCCTGTG-3′ (SEQ ID NO: 3); dAS, which corresponds to human PPAR-δ cDNA antisense sequence: 5′-TCCTCTTTCTCCTCCTCTT-3′ (SEQ ID NO: 4); aS, which corresponds to human PPAR-α cDNA sense sequence: 5′-CTCGGTGACTTATCCTGTG-3′ (SEQ ID NO: 5); and aAS, which corresponds to human PPAR-α cDNA antisense sequence: 5′-CACAGGATAAGTCACCGAG-3′ (SEQ ID NO: 6). These oligonucleotides were transfected into cells by HVJ-liposome method. Each oligonucleotide (22 μg) was combined with a nuclear protein and high mobility group (HMG)-1. HVJ-liposome was prepared by combining dry lipid (phosphatidyl serine/phosphatidyl choline/cholesterol (1:4.8:2 w/w/w)) with ultraviolet light-inactivated HVJ virus (viruses). After incubation and centrifugation with a sucrose-density gradient, the top layer was collected for transfection. 48 hours after transfection, cells in which the expression of endogenous PPAR-δ had been suppressed were used in PPREx3-luciferase assay and apoptosis assay.

[5] = system: recombinant PPAR; conditions: added to medium; cited from earlier work
[6] = system: HEK-293 cells; test: Distribution of 3H-Iloprost in membrane, cytosol and nuclear fractions; assay type: in vitro ADME, human; conditions: 100 μM 3H-Iloprost, 24 hours
Experimental: FIG. 14 is a diagram showing the influence of the expression of PGIS on PPAR activation. The permeability of Iloprost was evaluated by using ^3H-Iloprost. HEK-293 cells were cultured in DMEM containing 100 μM ^3H-Iloprost for 24 hours. Cell membrane, cytosol, and nuclear fractions were prepared from the cells, and then the distribution of ^3H-Iloprost was determined using the fractions. The results were obtained from three sets of experiments (n=3) and are presented as mean±S.D.

[7] = system: cAMP; test: Intracellular level of cAMP accumulated in transfected cells; assay type: cell-based, human; conditions: Iloprost at various concentrations, serum-free medium
Experimental: FIG. 8 illustrates a diagram showing the intracellular level of cAMP accumulated in cells in serum-free medium containing Iloprost at the concentrations indicated (0, 1, 10, or 100 μM). The cells were transfected with expression plasmids for PGISwt, PGISC441A, or a mock control expression plasmid and β-galactosidase expression plasmid. After 17 hours, the medium was changed with serum-free medium containing Iloprost at various concentrations (0, 1, 10, or 100 μm). All results were obtained from three sets of experiments (n=3) and are presented as mean±S.D.

[8] = system: HEK-293 cells; test: Double-staining with anti-PGIS antibody and Hoechst 33258 (chromatin condensation); assay type: cell-based, human; conditions: 100 μM; HEK-293 cells expressing PGIS; data not shown
Experimental: Cultured monolayer cells of human fetal kidney-derived HEK-293 cell line (ATCC CRL-1573) were harvested and plated in Dulbecco's modified Eagle's medium containing 10% bovine fetal serum (FBS), 100 U/ml penicillin, and […] streptomycin (3×10^5 cells/60-mm dish). 24 hours after incubation, the cells were transfected with 3 μg of any one of PGISwt (described below), PGISC441A (described below), or control vector pCMV7 (generous gift from Texas University; Andersson, S. et al., J. Biol. Chem., 264, 8222-8229 (1989): this can be replaced with pcDNA3 (Invitrogen; catalogue number: #A-150228)) and […] of pvA (plasmid encoding adenovirus-associated RNA1) using LipofectAMINE (Gibco-BRL). 5 hours after transfection, the cells were rinsed twice with phosphate-buffered physiological saline (PBS), and the fresh medium was added thereto. After gene transfer, the cells were cultured for 48 to 60 hours in total. Then, the cells were rinsed with PBS, and fixed with 3.7% formaldehyde for 10 minutes. The cells fixed were washed three times with PBS, and then incubated with the anti-PGIS antibody P4 for 2 hours. After being washed three times with PBS containing 2% FBS, the cells were incubated with anti-rabbit Ig-Texas Red at 37° C. for 1 hour and stained with […] Hoechst 33258 at room temperature for 15 minutes.

Compound: 5′-CACAGGATAAGTCACCGAG-3′ (listed as DNA, chemistry not given here) [antisense oligonucleotide PPAR-α]
- changes in the oligonucleotide-treated cells (viability, morphology) [1]: cell viability declined
- effect of oligonucleotide on prostacyclin-mediated apoptosis [2]: apoptosis was not inhibited

Compound: 5′-CTCGGTGACTTATCCTGTG-3′ (listed as DNA, chemistry not given here) [PPAR-α sense oligonucleotide]
- changes in the oligonucleotide-treated cells (viability, morphology) [1]: no marked changes

Compound: 5′-TCCTCTTTCTCCTCCTCTT-3′ (listed as DNA, chemistry not given here) [PPAR-δ antisense oligonucleotide]
- changes in the oligonucleotide-treated cells (viability, morphology) [1]: normal morphology
- number of cells after oligonucleotide treatment [1]: increased
- activity of luciferase co-expressed with PGISwt in oligonucleotide-treated cells ([3]; HEK-293): significantly decreased
- production of PPAR-δ protein [4]: suppressed
- effect of oligonucleotide on prostacyclin-mediated apoptosis [2]: significantly blocked

Compound: CC1CNCCN1S(=O)(=O)c1cccc2cnccc12 (centres unmarked) [H-7]
- effect on prostacyclin-mediated apoptosis ([2]; H-7 1, 10, 100 μM in serum-free medium, FIG. 10): did not block but enhanced

Compound: CC#CCC(C)[C@H](O)/C=C/[C@@H]1[C@H]2C/C(=C/CCCC(=O)O)C[C@H]2C[C@H]1O (some centres unmarked) [Iloprost]
- activity of PPRE-luciferase on treatment ([3]; 1 to 100 μM added to medium, endogenous PPAR): could not increase
- activation of recombinant PPAR overexpressed in CV-1 cells [5]: results in activation
- Iloprost taken up by HEK-293 cells [6]: very little
- share of the Iloprost incorporated that is localized on cell membrane [6]: > 99%
- intracellular cAMP [7]: accumulated
- induction/enhancement of apoptosis by treatment with the agent [2]: apoptosis was not induced

Compound: CCCCC[C@H](O)/C=C/[C@@H]1[C@@H](C/C=C\CCCC(=O)O)[C@H]2CO[C@@H]1C2 [U46619]
- Hoechst 33258-positive cells [8]: 32%

Compound: CCCCC/C=C\C/C=C\C/C=C\C/C=C\CCCC(=O)O [arachidonic acid]
- apoptosis on addition to the medium ([2]; HEK-293 cells expressing both PGISwt and COX-2): induction of apoptosis in almost all the cells

Compound: CC(=O)Oc1ccccc1C(=O)O [aspirin]
- Hoechst 33258-positive cells [8]: 48%

Compound: CCCC(=O)Nc1ncnc2c1ncn2[C@@H]1O[C@@H]2COP(=O)(O)O[C@H]2[C@H]1OC(=O)CCC [dbcAMP, dibutyryl-cAMP]
- induction/enhancement of apoptosis by treatment with the agent [2]: apoptosis was not enhanced

Compound: CCCCC[C@H](O)/C=C/[C@@H]1[C@H]2C/C(=C/CCCC(=O)O)O[C@H]2C[C@H]1O [prostacyclin]
- activation of recombinant PPAR overexpressed in CV-1 cells [5]: could not activate

Reference: patent US7276490B1, “Medicinal compositions containing prostacylin synthase gene” (priority 2000, dated 2007)
